Source: patent publication US10662124B2, “Fertilizer composition containing oxidized glutathione and fertilizer element for foliar application” (Kaneka Corporation, priority 2015, dated 2020)

Tests used:
[1] = system: Lettuce seedlings (Green leaf lettuce, Sakata Seed Corporation); experiment: Example 2: effects of application on leaf surface, lettuce seedling-raising test; format: in vivo; conditions: for Weight (fresh weight, average, of the terrestrial parts): 2 weeks, n=3; for Growth rate (fresh weight of terrestrial parts relative to Control group): Control group = 100
Experimental: (§1) Lettuce seedlings (Green leaf lettuce, Sakata Seed Corporation) were raised under the conditions described below.
(§2) Place: Inside a plant incubator
(§3) Soil: Black soil (40 ml/pot)
(§4) Light: 115 μmol m^−2 s^−1 (10,000 lux) (light period: 16 hours; dark period: 8 hours)
Number of tested plants (n): 3
(§5) Water supply: During the seedling-raising test, water was adequately supplied so as to prevent the soil in the pot from being dehydrated (about 20 ml/week).
Test groups: Four test groups: i.e., Control group, Comparative group 1, Comparative group 2, and Invention group, were provided as shown in Table 3 below.
(§6) Control group was tested through application of fertilizer elements (nitrogen, phosphorus, and potassium) only to soil without the application of GSSG.
(§7) In the case of Control group, soil was prepared to comprise nitrogen, phosphorus, and potassium in an amount of 40 mg each (120 mg in total per pot) in terms of N, P2O5, and K2O, respectively, at the time of sowing. Specifically, 40 ml of soil, 156 mg of ammonium sulfate, 66 mg of monobasic ammonium phosphate, and 80 mg of potassium sulfate were weighed and introduced into a container, these components were mixed to prepare a homogeneous composition, and the resultant was introduced into a pot. Ammonium sulfate used in the experiment contained 21% of nitrogen (in terms of N), and monobasic ammonium phosphate contained 11% of nitrogen (in terms of N) and 61% of phosphorus (in terms of P2O5), and potassium sulfate contained 50% of potassium (in terms of K2O) (based on the indication of each product).
(§8) Lettuce seeds were sowed in soil in the pot and the seedling-raising test was then initiated.
Comparative group 1 was tested through application of GSSG and a fertilizer elements (nitrogen, phosphorus, and potassium) only to soil.
The method for application of fertilizer elements to soil and the amount of application are as described above with reference to Control group.
GSSG was applied to soil with the addition of an aqueous solution of GSSG to soil. At the outset, an aqueous solution of GSSG (in terms of free GSSG, the same applies hereinbelow) dissolved at 300 ppm in water was prepared. Subsequently, the aqueous solution of GSSG was applied in an amount of 4 ml each (12 ml in total) three separate times at intervals of 3 days from 6 days after seedling raising was initiated. Thus, 3.6 mg of GSSG (in terms of free GSSG) was applied during the test period per pot. […]
In Invention group, soil was prepared to contain the fertilizer elements (i.e., 36 mg each of nitrogen, phosphorus, and potassium in terms of N, P2O5, and K2O, respectively, 108 mg in total per pot) at the time of sowing. Specifically, 40 ml of soil and, as fertilizer elements, 140.4 mg of ammonium sulfate, 59.4 mg of ammonium phosphate, and 72 mg of potassium sulfate, were weighed and introduced into a container, these components were mixed to prepare a homogeneous composition, and the resultant was then introduced into a pot.
GSSG was spray-applied to the leaf surface as described below. The finely-powdered water-soluble preparation (1) of the formulation A as described in Example 1 (33.8 mg) was dissolved in 12 ml of water to prepare an aqueous solution containing GSSG and fertilizer elements. […]

[2] = system: Lettuce seedlings (Green leaf lettuce, Sakata Seed Corporation); experiment: Example 6: spray-application to leaf surface with different amounts of fertilizer elements, lettuce seedling-raising test; format: in vivo
Experimental: as §1, §2, §3, §4
Number of tested plants (n): 4
as §5
Test groups: […] test groups: i.e., Control group, Comparative group 7, Formulation group 1 (15 parts of the fertilizer), Formulation group 2 (30 parts of the fertilizer), Formulation group 3 (100 parts of the fertilizer), Formulation group 4 (150 parts of the fertilizer), Formulation group 5 (200 parts of the fertilizer), and Formulation group 6 (400 parts of the fertilizer), were provided as shown in Table 11 below.
as §6
as §7, with “contain” for “comprise”, “elements” for “components”, “N),” for “N), and”
as §8
Comparative group 7 was tested through application of GSSG to the leaf surface and fertilizer elements (nitrogen, phosphorus, and potassium) to soil. […]

Oxidized glutathione [GSSG]
Plant growth promotion versus Control group ([1]; Comparative group 1 (GSSG to soil) compared with Control group): plant growth is promoted | Weight (fresh weight, average, of the terrestrial parts) ([1]; GSSG applied to soil, 3.6 mg per pot in three applications, fertilizer elements to soil): 90 mg | Growth rate (fresh weight of terrestrial parts relative to Control group) ([1]; GSSG applied to soil, 3.6 mg per pot, fertilizer elements to soil): 130% | Growth rate (fresh weight of terrestrial parts relative to Control group) ([1]; sprayed to the leaf surface three times, 12 ml in total per pot (3.5-3.6 mg GSSG)): 149% | Weight (fresh weight, average, of the terrestrial parts) ([1]; sprayed to the leaf surface three times, 12 ml in total per pot (3.5-3.6 mg GSSG), remaining fertilizer elements to soil): 103 mg | Weight (fresh weight, average, of the terrestrial parts) ([2]; 2 weeks, n=4, 3.5 mg GSSG with 0-400 parts of fertilizer per 100 parts GSSG sprayed to leaf surface three times, 12 ml in total per pot, rest of fertilizer to soil): 88 mg | Plant growth promotion versus Control group ([2]; Comparative group 7 compared with Control group): plant growth is promoted | Growth rate (fresh weight of terrestrial part relative to Control group) ([2]; Control group = 100, 3.5 mg GSSG with 0-400 parts of fertilizer per 100 parts GSSG sprayed to leaf surface): 131%
